Columns and labels:
Recombinant NAMPT enzyme = target: T1, Recombinant NAMPT enzyme (Homo sapiens, UniProt P43490); assay: Inhibition of NAMPT enzymatic activity; assay type: biochemical; conditions: 6 hours at 37° C., NMN product detected
T1 construct: purchased MBL
Method: Recombinant NAMPT enzyme (MBL) was briefly pre-incubated in the absence or presence of inhibitor followed by addition of nicotinamide. Enzymatic reaction was allowed to proceed for 6 hours at 37° C. Reaction was terminated and NMN reaction product detected using the method as described in: Zhang R Y, Qin Y, Lv X Q, Wang P, Xu T Y, Zhang L, Miao C Y., Anal. Biochem. 2011 May 1; 412(1):18-25.
(§1) The 50% inhibitory concentration (IC50) is the concentration at which 50% of the maximal activity was inhibited.

primary human B cells = assay: Anti-proliferative activity on B cells (anti-IgM stimulated, CellTiterGlo); assay type: cell-based; conditions: B-cell, 72 h, anti-IgM 10 ug/ml
Method: (§2) Fresh primary human B cells obtained from Analytical Biological Services (Wilmington, Del.) were diluted to 1×10^^6 cells per ml in AIM-V medium (Invitrogen), and stimulated with anti-IgM (10 ug/ml) (KPL) in the absence or presence of inhibitor for 72 hours at 37° C./5% CO2 prior to viability determination using CellTiterGlo (Promega) per manufacturer's instruction.
as §1

primary human T cells = assay: Anti-proliferative activity on T cells (CD3/CD28 stimulated, CellTiterGlo); assay type: cell-based; conditions: T-cell, 72 h, CD3/CD28 beads
Method: as §2, with “human T” for “human B”, “with CD3/CD28 beads (Invitrogen)” for “with anti-IgM (10 ug/ml) (KPL)”
as §1

[1] = tested on: acute T-cell leukemia (JURKAT); assay: Anti-proliferative activity on JURKAT cell line; assay type: cell-based; conditions: Homo sapiens, 72 h, CellTiterGlo
Method: (§3) Leukemia/Lymphoma cell lines (ATCC) were diluted in vendor-recommended media and incubated in the absence or presence of inhibitor for 72 hours at 37° C./5% CO2 prior to viability determination using CellTiterGlo (Promega) per manufacturer's instruction. The human cell lines studied include acute T-cell leukemia (JURKAT), chronic myelogenous leukemia (K562), and B-cell acute lymphocytic leukemia (NALM6 and SUP-B15).

[2] = tested on: chronic myelogenous leukemia (K562); assay: Anti-proliferative activity on K562 cell line; assay type: cell-based; conditions: Homo sapiens, K562, 72 h, CellTiterGlo
Method: as §3

[3] = tested on: B-cell acute lymphocytic leukemia (NALM6); assay: Anti-proliferative activity on NALM6 cell line; assay type: cell-based; conditions: Homo sapiens, NALM-6, 72 h, CellTiterGlo
Method: as §3

[4] = tested on: B-cell acute lymphocytic leukemia (SUP-B15); assay: Anti-proliferative activity on SUP-B15 cell line; assay type: cell-based; conditions: Homo sapiens, SUP-B15, 72 h, CellTiterGlo
Method: as §3

T1 sequence (P43490 whole entry): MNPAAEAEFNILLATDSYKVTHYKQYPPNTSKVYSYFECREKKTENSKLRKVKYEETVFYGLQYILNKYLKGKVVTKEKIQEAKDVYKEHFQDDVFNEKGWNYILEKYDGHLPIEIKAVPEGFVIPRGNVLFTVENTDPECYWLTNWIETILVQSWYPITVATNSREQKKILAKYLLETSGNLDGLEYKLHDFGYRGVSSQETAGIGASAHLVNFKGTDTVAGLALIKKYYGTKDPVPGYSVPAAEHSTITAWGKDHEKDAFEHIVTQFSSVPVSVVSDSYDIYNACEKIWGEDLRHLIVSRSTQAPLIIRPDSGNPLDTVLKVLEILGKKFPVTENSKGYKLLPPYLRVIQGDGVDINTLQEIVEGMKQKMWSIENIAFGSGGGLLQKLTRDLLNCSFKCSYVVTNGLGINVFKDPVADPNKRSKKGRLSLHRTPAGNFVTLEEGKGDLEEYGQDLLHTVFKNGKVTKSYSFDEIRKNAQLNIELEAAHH

| Structure (SMILES) | IC50 (Recombinant NAMPT enzyme) [nM] | IC50 [1] [nM] | IC50 [2] [nM] | IC50 [3] [nM] | IC50 [4] [nM] | IC50 (primary human B cells) [nM] | IC50 (primary human T cells) [µM] |
| --- | --- | --- | --- | --- | --- | --- | --- |
| CCCCONC(=O)c1ccc(-c2ccc3c(c2)C(=O)CC2(CCN(C(C)C)CC2)O3)nc1 [N-butoxy-6-(1′-isopropyl-4-oxospiro[chroman-2,4′-piperidin]-6-yl)nicotinamide] | 1.4 | 23.3 | 282 | 15.6 | 3.02 | 45 | 7.37 |
| CCCN1CCC2(CC1)CC(=O)c1cc(-c3ccc(C(=O)NCc4cncs4)cn3)ccc1O2 [6-(4-oxo-1′-propylspiro[chroman-2,4′-piperidin]-6-yl)-N-(thiazol-5-ylmethyl)nicotinamide] | 66.7 | 16.3 | 35.7 | 11.9 | 1.89 | 15.2 | 1.08 |
| CC(C)N1CCC2(CC1)Oc1ccc(-c3ccc(C(=O)NCc4cnn(C)c4)cn3)cc1C(=O)N2C [6-(1′-isopropyl-3-methyl-4-oxo-3,4-dihydrospiro[benzo[e][1,3]oxazine-2,4′-piperidin]-6-yl)-N-((1-methyl-1H-pyrazol-4-yl)methyl)nicotinamide] | 15 | 181 | 629 | 122 | 20.9 | 97.7 | 6.11 |
| O=C(NCc1cncc(F)c1)c1ccc(-c2ccc3c(n2)C(=O)CC2(CCN(CC4CCC4)CC2)O3)cc1 [4-(1-(cyclobutylmethyl)-4′-oxo-3′,4′-dihydrospiro[piperidine-4,2′-pyrano[3,2-b]pyridin]-6′-yl)-N-((5-fluoropyridin-3-yl)methyl)benzamide] | 66.4 | 154 | 332 | 48.9 | 7.29 | 83 | 3.99 |
| COCCCN1CCC2(C=Cc3cc(-c4ccc(C(=O)NCc5cncs5)cn4)ccc3O2)CC1 [6-(1′-(3-methoxypropyl)spiro[chromene-2,4′-piperidin]-6-yl)-N-(thiazol-5-ylmethyl)nicotinamide] | 56.4 | – | 85.8 | 13.9 | 1.7 | 45.5 | 5.79 |
| CC(C)N1CCC2(CC1)Oc1ccc(-c3ccc(C(=O)NCc4cncs4)cn3)cc1C(=O)N2C [6-(1′-isopropyl-3-methyl-4-oxo-3,4 dihydrospiro[benzo[e][1,3]oxazine-2,4′-piperidin]-6-yl)-N-(thiazol-5-ylmethyl)nicotinamide] | 107 | 33 | 75.7 | 17.6 | 2.14 | 25.4 | 1.55 |
| COCCCN1CCC2(CC1)CC(=O)c1cc(-c3ccc(C(=O)NCc4cncs4)cn3)ccc1O2 [6-(1′-(3-methoxypropyl)-4-oxospiro[chroman-2,4′-piperidin]-6-yl)-N-(thiazol-5-ylmethyl)nicotinamide] | 141 | 19.6 | 54.4 | 9.38 | 1.83 | 43.8 | 3.29 |
| CC(C)N1CCC2(CC1)CC(=O)c1cc(-c3ccc(C(=O)NCc4cnn(C)c4)cn3)ccc1O2 [6-(1′-isopropyl-4-oxospiro[chroman-2,4′-piperidin]-6-yl)-N-((1-methyl-1H-pyrazol-4-yl)methyl)nicotinamide] | 14 | 209 | 304 | 102 | 14.1 | 59.8 | 5.59 |
| CC(C)N1CCC2(CC1)Oc1ccc(-c3ccc(C(=O)CCc4cncs4)cc3)cc1C(=O)N2C [1′-isopropyl-3-methyl-6-(4-(3-(thiazol-5-yl)propanoyl)phenyl)spiro[benzo[e][1,3]oxazine-2,4′-piperidin]-4(3H)-one] | 166 | 34.7 | 112 | 18.6 | 2.85 | 40.8 | 3.19 |
| CCCCN1CCC2(CC1)CC(=O)c1cc(-c3ccc(C(=O)NCc4cncs4)cn3)ccc1O2 [6-(1′-butyl-4-oxospiro[chroman-2,4′-piperidin]-6-yl)-N-(thiazol-5-ylmethyl)nicotinamide] | 29.9 | 8.85 | 19.8 | 5.73 | 1.03 | 24.8 | 1.88 |
| CCN1CCC2(CC1)CC(=O)c1cc(-c3ccc(C(=O)NCc4cncs4)cn3)ccc1O2 [6-(1′-ethyl-4-oxospiro[chroman-2,4′-piperidin]-6-yl)-N-(thiazol-5-ylmethyl)nicotinamide] | 271 | 43.6 | 180 | 21.6 | 5.15 | 50.9 | 3.35 |

More lines, main results first:

| IC50 (Recombinant NAMPT enzyme) [nM] | IC50 [1] [nM] | IC50 [2] [nM] | IC50 [3] [nM] | IC50 [4] [nM] | Structure (SMILES) | IC50 (primary human B cells) [nM] | IC50 (primary human T cells) [µM] |
| --- | --- | --- | --- | --- | --- | --- | --- |
| 1 | 3.54 | 19.4 | 2.25 | 0.706 | CCCN1CCC2(CC1)CC(=O)c1cc(-c3ccc(C(=O)NCc4cc(C)no4)cn3)ccc1O2 [N-((3-methylisoxazol-5-yl)methyl)-6-(4-oxo-1′-propylspiro[chroman-2,4′-piperidin]-6-yl)nicotinamide] | 5.9 | 0.731 |
| 1 | 12.2 | 44.7 | 7.42 | 2.3 | CCc1cc(CNC(=O)c2ccc(-c3ccc4c(c3)C(=O)CC3(CCN(C(C)C)CC3)O4)cc2)on1 [N-((3-ethylisoxazol-5-yl)methyl)-4-(1′-isopropyl-4-oxospiro[chroman-2,4′-piperidin]-6-yl)benzamide] | 21.3 | 1.72 |
| 2 | 7.78 | 25 | 6.74 | 2.07 | CCCN1CCC2(CC1)CC(=O)c1cc(-c3ccc(C(=O)NCc4cc(C)no4)cc3)ccc1O2 [N-((3-methylisoxazol-5-yl)methyl)-4-(4-oxo-1′-propylspiro[chroman-2,4′-piperidin]-6-yl)benzamide] | 12.9 | 0.677 |
| 1 | 6.38 | 25.8 | 3.63 | 1.04 | CCCN1CCC2(C=Cc3cc(-c4ccc(C(=O)NCc5cc(C)no5)cn4)ccc3O2)CC1 [N-((3-methylisoxazol-5-yl)methyl)-6-(1′-propylspiro[chromene-2,4′-piperidin]-6-yl)nicotinamide] | 4.4 | 0.342 |
| 1 | 10.7 | 63.6 | 2.69 | 1.17 | Cc1cc(CNC(=O)c2ccc(-c3ccc4c(c3)C(=O)CC3(CCN(C(C)C)CC3)O4)cc2)no1 [4-(1′-isopropyl-4-oxospiro[chroman-2,4′-piperidin]-6-yl)-N-((5-methylisoxazol-3-yl)methyl)benzamide] | 11.3 | 3.24 |
| 4.2 | 12.1 | 29.4 | 4.83 | 0.847 | COCCCCN1CCC2(CC1)CC(=O)c1cc(-c3ccc(C(=O)NCc4cncc(F)c4)cn3)ccc1O2 [N-((5-fluoropyridin-3-yl)methyl)-6-(1′-(4-methoxybutyl)-4-oxospiro[chroman-2,4′-piperidin]-6-yl)nicotinamide] | 10.9 | 5.45 |
| 2 | 21.3 | 1730 | 10.7 | 2.22 | Cc1ccc(CNC(=O)c2ccc(-c3ccc4c(c3)C(=O)CC3(CCN(C(C)C)CC3)O4)c(F)c2)cn1 [3-fluoro-4-(1′-isopropyl-4-oxospiro[chroman-2,4′-piperidin]-6-yl)-N-((6-methylpyridin-3-yl)methyl)benzamide] | 53.9 | 8.51 |
| 1 | 3.66 | 2.94 | 3.48 | 1.47 | CC(C)N1CCC2(CC1)CC(=O)c1cc(-c3ccc(C(=O)NCc4cccnc4F)cc3)ccc1O2 [N-((2-fluoropyridin-3-yl)methyl)-4-(1′-isopropyl-4-oxospiro[chroman-2,4′-piperidin]-6-yl)benzamide] | 9.9 | 5.79 |
| 5.5 | 20.4 | 78.8 | 8.8 | 1.1 | CC(C)N1CCC2(CC1)CC(=O)c1cc(-c3ccc(C(=O)NCc4cncc(F)c4)cc3)ccc1O2 [N-((5-fluoropyridin-3-yl)methyl)-4-(1′-isopropyl-4-oxospiro[chroman-2,4′-piperidin]-6-yl)benzamide] | 7.9 | 3.3 |

Reference: patent US10017523B2, “NAMPT inhibitors and methods” (Genzyme Corporation, priority 2014, dated 2018)
